Reference: paper PMC9481151, “Discovery of new symmetrical and asymmetrical nitrile-containing 1,4-dihydropyridine derivatives as dual kinases and P-glycoprotein inhibitors: synthesis, in vitro assays, and in silico studies” (Journal of Enzyme Inhibition and Medicinal Chemistry, 2022)

Key:
[1] = system: M14; assay: NCI single dose (10 µM) SRB screen; type: cell-based, human; details: melanoma, 48 h
[2] = system: MALME-3M; assay: NCI single dose (10 µM) SRB screen; type: cell-based, human; details: melanoma, 48 h
[3] = system: NCI-H226; assay: NCI single dose (10 µM) SRB screen; type: cell-based, human; details: non-small cell lung cancer, 48 h
[4] = system: NCI 60 cancer cell lines; assay: NCI single dose (10 µM) SRB screen, mean over panel; type: cell-based, human; details: mean over 60 cell lines, 48 h
[5] = system: SK-MEL-5; assay: NCI single dose (10 µM) SRB screen; type: cell-based, human; details: melanoma, 48 h
[6] = system: SF-295; assay: NCI single dose (10 µM) SRB screen; type: cell-based, human; details: CNS cancer, 48 h
[7] = system: A549/ATCC; assay: NCI single dose (10 µM) SRB screen; type: cell-based, human; details: non-small cell lung cancer, 48 h
[8] = system: HOP-62; assay: NCI single dose (10 µM) SRB screen; type: cell-based, human; details: non-small cell lung cancer, 48 h
[9] = system: Escherichia coli; assay: Agar well diffusion method
[10] = system: A498; assay: NCI single dose (10 µM) SRB screen; type: cell-based, human; details: renal cancer, 48 h
[11] = system: EKVX; assay: NCI single dose (10 µM) SRB screen; type: cell-based, human; details: non-small cell lung cancer, 48 h
[12] = system: UACC-257; assay: NCI single dose (10 µM) SRB screen; type: cell-based, human; details: melanoma, 48 h
[13] = system: UO-31; assay: NCI single dose (10 µM) SRB screen; type: cell-based, human; details: renal cancer, 48 h
[14] = system: HOP-92; assay: NCI single dose (10 µM) SRB screen; type: cell-based, human; details: non-small cell lung cancer, 48 h
[15] = system: UACC-62; assay: NCI single dose (10 µM) SRB screen; type: cell-based, human; details: melanoma, 48 h
[16] = system: HCT-15; assay: NCI single dose (10 µM) SRB screen; type: cell-based, human; details: colon cancer, 48 h
[17] = system: BT-549; assay: NCI single dose (10 µM) SRB screen; type: cell-based, human; details: breast cancer, 48 h
[18] = system: HCT-116; assay: NCI single dose (10 µM) SRB screen; type: cell-based, human; details: colon cancer, 48 h
[19] = system: PC-3; assay: NCI single dose (10 µM) SRB screen; type: cell-based, human; details: prostate cancer, 48 h
[20] = system: RPMI-8226; assay: NCI single dose (10 µM) SRB screen; type: cell-based, human; details: leukaemia, 48 h
[21] = system: SK-MEL-2; assay: NCI single dose (10 µM) SRB screen; type: cell-based, human; details: melanoma, 48 h
[22] = system: MOLT-4; assay: NCI single dose (10 µM) SRB screen; type: cell-based, human; details: leukaemia, 48 h
[23] = system: NCI-H23; assay: NCI single dose (10 µM) SRB screen; type: cell-based, human; details: non-small cell lung cancer, 48 h
[24] = system: SNB-75; assay: NCI single dose (10 µM) SRB screen; type: cell-based, human; details: CNS cancer, 48 h
[25] = system: LOX IMVI; assay: NCI single dose (10 µM) SRB screen; type: cell-based, human; details: melanoma, 48 h
[26] = system: HT29; assay: NCI single dose (10 µM) SRB screen; type: cell-based, human; details: colon cancer, 48 h
[27] = system: SNB-19; assay: NCI single dose (10 µM) SRB screen; type: cell-based, human; details: CNS cancer, 48 h
[28] = system: SK-OV-3; assay: NCI single dose (10 µM) SRB screen; type: cell-based, human; details: ovarian cancer, 48 h
[29] = system: HL-60(TB); assay: NCI single dose (10 µM) SRB screen; type: cell-based, human; details: leukaemia, 48 h
[30] = system: NCI-H322M; assay: NCI single dose (10 µM) SRB screen; type: cell-based; details: non-small cell lung cancer, 48 h
[31] = system: U251; assay: NCI single dose (10 µM) SRB screen; type: cell-based, human; details: CNS cancer, 48 h
[32] = system: HCC-2998; assay: NCI single dose (10 µM) SRB screen; type: cell-based, human; details: colon cancer, 48 h
[33] = system: SF-268; assay: NCI single dose (10 µM) SRB screen; type: cell-based, human; details: CNS cancer, 48 h
[34] = system: Candida albicans; assay: Agar well diffusion method
[35] = system: MDA-MB-231; assay: NCI single dose (10 µM) SRB screen; type: cell-based, human; details: breast cancer, 48 h
[36] = system: MDA-MB-468; assay: NCI single dose (10 µM) SRB screen; type: cell-based, human; details: breast cancer, 48 h
[37] = system: Staphylococcus aureus; assay: Agar well diffusion method
[38] = system: CCRF-CEM; assay: NCI single dose (10 µM) SRB screen; type: cell-based, human; details: leukaemia, 48 h
[39] = system: NCI-H522; assay: NCI single dose (10 µM) SRB screen; type: cell-based, human; details: non-small cell lung cancer, 48 h
[40] = system: SR; assay: NCI single dose (10 µM) SRB screen; type: cell-based, human; details: leukaemia, 48 h
[41] = system: DU-145; assay: NCI single dose (10 µM) SRB screen; type: cell-based, human; details: prostate cancer, 48 h
[42] = system: ACHN; assay: NCI single dose (10 µM) SRB screen; type: cell-based, human; details: renal cancer, 48 h
[43] = system: HS578T; assay: NCI single dose (10 µM) SRB screen; type: cell-based, human; details: breast cancer, 48 h
[44] = system: Bacillus subtilis; assay: Agar well diffusion method; details: relative to ciprofloxacin
[45] = system: MDA-MB-435; assay: NCI single dose (10 µM) SRB screen; type: cell-based, human; details: melanoma, 48 h
[46] = system: KM12; assay: NCI single dose (10 µM) SRB screen; type: cell-based, human; details: colon cancer, 48 h
[47] = system: MCF7; assay: NCI single dose (10 µM) SRB screen; type: cell-based, human; details: breast cancer, 48 h
[48] = system: CAKI-1; assay: NCI single dose (10 µM) SRB screen; type: cell-based, human; details: renal cancer, 48 h
[49] = system: NCI/ADR-RES; assay: NCI single dose (10 µM) SRB screen; type: cell-based, human; details: ovarian cancer, 48 h
[50] = system: COLO 205; assay: NCI single dose (10 µM) SRB screen; type: cell-based, human; details: colon cancer, 48 h
[51] = system: SW-620; assay: NCI single dose (10 µM) SRB screen; type: cell-based, human; details: colon cancer, 48 h
[52] = system: TK-10; assay: NCI single dose (10 µM) SRB screen; type: cell-based, human; details: renal cancer, 48 h

SMILES: COC(=O)C1=C(C)NC(C)=C(C(=O)OCC(C)C)C1c1cccc(C#N)c1 (racemic) [Compound 2b, (±)-3-Isobutyl 5-methyl 4-(3-cyanophenyl)-2,6-dimethyl-1,4-dihydropyridine-3,5-dicarboxylate]
- GI% M14 [1]: – (Only GI% ≥ 10 are shown)
- GI% MALME-3M [2]: – (Only GI% ≥ 10 are shown)
- GI% NCI-H226 [3]: 10%
- Mean GI% [4]: 5%
- GI% SK-MEL-5 [5]: – (Only GI% ≥ 10 are shown)
- GI% SF-295 [6]: 18%
- GI% A549/ATCC [7]: – (Only GI% ≥ 10 are shown)
- GI% HOP-62 [8]: – (Only GI% ≥ 10 are shown)
- zone of inhibition at 1000 µg/mL ([9]; Escherichia coli, 24 h, read-out: Diameter of inhibition zone, E. coli): 9 mm
- % activity index, E. coli ([9]; relative to ciprofloxacin): 34.6%
- GI% A498 [10]: – (Only GI% ≥ 10 are shown)
- GI% EKVX [11]: 12%
- GI% UACC-257 [12]: – (Only GI% ≥ 10 are shown)
- GI% UO-31 [13]: 11%
- GI% HOP-92 [14]: 17%
- GI% UACC-62 [15]: 21%
- GI% HCT-15 [16]: – (Only GI% ≥ 10 are shown)
- GI% BT-549 [17]: – (Only GI% ≥ 10 are shown)
- GI% HCT-116 [18]: 18%
- GI% PC-3 [19]: 22%
- GI% RPMI-8226 [20]: – (Only GI% ≥ 10 are shown)
- GI% SK-MEL-2 [21]: – (Only GI% ≥ 10 are shown)
- GI% MOLT-4 [22]: 16%
- GI% NCI-H23 [23]: – (Only GI% ≥ 10 are shown)
- GI% SNB-75 [24]: 22%
- GI% LOX IMVI [25]: – (Only GI% ≥ 10 are shown)
- GI% HT29 [26]: – (Only GI% ≥ 10 are shown)
- GI% SNB-19 [27]: – (Only GI% ≥ 10 are shown)
- GI% SK-OV-3 [28]: – (Only GI% ≥ 10 are shown)
- GI% HL-60(TB) [29]: 18%
- GI% NCI-H322M [30]: – (Only GI% ≥ 10 are shown)
- GI% U251 [31]: – (Only GI% ≥ 10 are shown)
- GI% HCC-2998 [32]: – (Only GI% ≥ 10 are shown)
- GI% SF-268 [33]: – (Only GI% ≥ 10 are shown)
- zone of inhibition at 1000 µg/mL ([34]; Candida albicans, 24 h, read-out: Diameter of inhibition zone, C. albicans): 7 mm
- % activity index, C. albicans ([34]; relative to clotrimazole): 25.9%
- GI% MDA-MB-231 [35]: – (Only GI% ≥ 10 are shown)
- GI% MDA-MB-468 [36]: – (Only GI% ≥ 10 are shown)
- zone of inhibition at 1000 µg/mL ([37]; Staphylococcus aureus, 24 h, read-out: Diameter of inhibition zone, S. aureus): 9 mm
- % activity index, S. aureus ([37]; relative to ciprofloxacin): 37.5%
- GI% CCRF-CEM [38]: – (Only GI% ≥ 10 are shown)
- GI% NCI-H522 [39]: 15%
- GI% SR [40]: 29%
- GI% DU-145 [41]: – (Only GI% ≥ 10 are shown)
- GI% ACHN [42]: – (Only GI% ≥ 10 are shown)
- GI% HS578T [43]: 14%
- % activity index, B. subtilis [44]: – (Values below 25 are of limited value and not shown as they refer either to inactive or non-diffusing compounds)
- GI% MDA-MB-435 [45]: – (Only GI% ≥ 10 are shown)
- GI% KM12 [46]: – (Only GI% ≥ 10 are shown)
- GI% MCF7 [47]: 15%
- GI% CAKI-1 [48]: 28%
- GI% NCI/ADR-RES [49]: – (Only GI% ≥ 10 are shown)
- GI% COLO 205 [50]: – (Only GI% ≥ 10 are shown)
- GI% SW-620 [51]: – (Only GI% ≥ 10 are shown)
- GI% TK-10 [52]: – (Only GI% ≥ 10 are shown)
